Measured values reported in US9534059B2, “TIKI inhibitors” (Children's Medical Center Corporation, priority 2012, dated 2017).
Entries after “also recorded” stand apart in the source; their conditions may differ.

T1: TIKI2N (Homo sapiens, UniProt A6NFA1)
T1 construct: which is the extracellular domain of TIKI2 fused with a carboxyl FLAG tag and a 6×HIS tag; made in house; host or cells: HEK293T
T1 sequence (A6NFA1 20-486 limits assumed): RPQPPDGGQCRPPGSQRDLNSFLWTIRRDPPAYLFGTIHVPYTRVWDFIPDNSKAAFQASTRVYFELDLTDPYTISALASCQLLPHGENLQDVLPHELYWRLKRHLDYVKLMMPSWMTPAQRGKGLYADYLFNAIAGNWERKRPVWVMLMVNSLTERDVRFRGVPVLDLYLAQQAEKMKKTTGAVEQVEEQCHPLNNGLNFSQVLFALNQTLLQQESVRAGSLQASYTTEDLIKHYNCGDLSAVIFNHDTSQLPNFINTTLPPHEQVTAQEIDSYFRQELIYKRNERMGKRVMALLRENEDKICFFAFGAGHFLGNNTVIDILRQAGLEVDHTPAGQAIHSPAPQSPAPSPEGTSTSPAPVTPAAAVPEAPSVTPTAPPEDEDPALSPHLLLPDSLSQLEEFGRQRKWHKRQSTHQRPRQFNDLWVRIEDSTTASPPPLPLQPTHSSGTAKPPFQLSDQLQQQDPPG


Experiments:
TIKI2N = target: T1, TIKI2N; assay: In vitro treatment of HA-Wnt3a with purified TIKI2N (cleavage, Western blotting); format: biochemical; settings: for TIKI2N activity (cleavage of HA-Wnt3a) in the presence of protease inhibitor / Effects of divalent metals on TIKI2N activity: in vitro; for TIKI2N activity (cleavage of HA-Wnt3a) in the presence of protease inhibitor: purified TIKI2N + recombinant HA-Wnt3a, Western blotting; for Rescue of TIKI2N activity with divalent metals after inhibition with 1,10-Phenanthroline: 20 μM 1,10-Phenanthroline 1 hr, then 50 μM metal ion for another 2 hrs; for Effects of divalent metals on TIKI2N activity: 50 μM of each divalent metal ion, 2 hrs
Procedure: HEK293T cells in 100 mm dishes were transfected with TIKI2N-, KRM2N-, TIKI2NΔ-FLAG-6×HIS (“6×HIS” disclosed as SEQ ID NO: 57) or HA-Wnt3a vectors. The medium containing transfection mixture was replaced with 6 ml fresh medium 24 hrs post-transfection, and incubated for another 24 hrs. To purify TIKI2N, KRM2N and TIKI2NΔ, cells were washed with PBS and lysed in ice-cold PBS containing 0.2% NP-40, 20 mM imidazole and the protease inhibitor cocktail (Roche) to make whole cell lysates (WCL). WCL was mixed with Ni-NTA agarose beads (QIAGEN) and incubated at 4° C. with rotation for 1 hr. The beads were pelleted by centrifugation and washed four times with PBS/0.2% NP-40 and the FLAG-6×HIS (“6×HIS” disclosed as SEQ ID NO: 57) fusion proteins were eluted with PBS/0.2% NP-40 containing 100 mM imidazole. The elute was diluted 3 time with PBS/0.2% NP-40 and were mixed with FLAG M2 agarose beads (Sigma). Following 2 hrs incubation with rotation at 4° C., the beads were pelleted by centrifugation and washed three times with PBS/0.2% NP-40 and one time with HEPES buffer (50 mM HEPES (pH 7.4), 100 mM NaCl, 0.2% NP-40). The FLAG fusion proteins were eluted with HEPES buffer containing 50 μg/ml 3×FLAG peptide. To purify HA-Wnt3a, the conditioned medium (CM) was collected and was cleared by centrifugation and 0.2% NP-40 was added. The CM was mixed with anti-HA agarose beads (Sigma). Following 2 hrs incubation with rotation at 4° C., the beads were pelleted by centrifugation and washed three times with PBS/0.2% NP-40 and one time with HEPES buffer (50 mM HEPES (pH 7.4), 100 mM NaCl, 0.2% NP-40). The HA-Wnt3a protein was eluted with HEPES buffer containing 300 μg/ml HA peptide.
About 50 ng purified TIKI2N, KRM2N, or TIKI2NΔ protein was mixed with 10 ng purified HA-Wnt3a in a total volume of 10 μl HEPES buffer (50 mM HEPES (pH 7.4), 100 mM NaCl, 0.2% NP-40) and incubated at 30° C. To examine TIKI2N activity in different pH conditions, the following buffer was used instead of HEPES, 100 mM sodium acetate (pH 5.5), 100 mM Tris-HCl (pH 6, 7, 8, 9) or 50 mM CAPS (pH 10, 11). The reaction product was analyzed by SDS-PAGE and Western blotting with anti-HA and anti-Wnt3a antibodies. For mass spectrometric analysis, 200 ng of recombinant Wnt3a (from Stem RD) was incubated with about 500 ng of TIKIN or KRM2N overnight at 30° C. and separated by SDS-PAGE. The Wnt3a bands were cut, trypsin digested and subjected to mass spectrometric analyses.
TIKI protease activity was characterized under in vitro conditions. […] Different protease inhibitors were applied to survey which protease family TIKI might belong to. […] Metalloproteases are defined by their dependence on divalent metals as co-factors (Barrett, 1998).

Wnt3a = assay: TOPFLASH assay of TIKI2N mutants co-transfected with Wnt3a in HEK293T cells; format: cell-based, human; settings: 5, 2.5, 1.25 and 0.612 ng plasmid with Wnt3a 20 ng
Procedure: FIG. 8B. Bar graph showing the results of a TOPFLASH assay testing TIKI2 mutations in Human TIKI2N construct (no transmembrane domain). Decreasing doses of 5, 2.5, 1.25 and 0.612 ng of the indicated TIKI2N expression plasmid were cotransfected with Wnt3a (20 ng) in HEK293T cells.
HEK293T, HeLa, L and L-Wnt3a cells (from ATCC) were maintained in Dulbecco's modified Eagle's medium (DMEM; Invitrogen) supplemented with 10% fetal bovine serum (FBS) and 1% penicillin-streptomycin-glutamine (Invitrogen). Lipofectamine 2000 (Invitrogen) or Fugene6 (Roche) was used for all cell transfections. L and L-Wnt3a cells that stably express TIKI2 were generated by infecting cells with retroviruses and selected by puromycin. L cells stably expressing Wnt3a(FLAG) were established by transfecting L cells with a Wnt3a(FLAG) expressing vector and selected with neomycine. L cells stably expressing both Wnt3a(FLAG) and TIKI2 were also generated. TOPFLASH reporter assay was performed as previously described (MacDonald et al., 2008).
A Wnt-responsive reporter (TOP-FLASH) assay was performed to test mutations at T56A, H58A, E85A, E205A, H256A, R303A, H331A in a Human TIKI2N construct (no transmembrane domain). Decreasing doses of 5, 2.5, 1.25 and 0.612 ng of the indicated TIKI2N expression plasmid were co-transfected with Wnt3a (20 ng) in HEK293T cells. […] T56A, H256A, and R303A had no effect on TIM activity, and so are likely to be less important sites for function.

Effects of divalent metals on TIKI2N activity (TIKI2N) | Molecule | TIKI activity of TIKI2N mutants (inhibition of Wnt3a-induced TOPFLASH) (Wnt3a) | also measured
enhanced | [Co+2] [Co^2+] |  | Rescue of TIKI2N activity with divalent metals after inhibition with 1,10-Phenanthroline (TIKI2N): rescued; also recorded: fully restored
inhibited TIKI2N activity | [Cu+2] [Cu^2+] |  | 
enhanced | [Mn+2] [Mn^2+] |  | Rescue of TIKI2N activity with divalent metals after inhibition with 1,10-Phenanthroline (TIKI2N): rescued; also recorded: fully restored
inhibited TIKI2N activity | [Zn+2] [Zn^2+] |  | 

Second part, the molecule before the results:

Molecule | Effects of divalent metals on TIKI2N activity (TIKI2N) | TIKI activity of TIKI2N mutants (inhibition of Wnt3a-induced TOPFLASH) (Wnt3a) | also measured
c1cnc2c(c1)ccc1cccnc12 [1,10-phenanthroline] |  |  | TIKI2N activity (cleavage of HA-Wnt3a) in the presence of protease inhibitor (TIKI2N): potently inhibited; TIKI2N activity (cleavage of HA-Wnt3a) in the presence of protease inhibitor (TIKI2N; listed as 1, 10-Phenanthroline): sensitive
CC(C)C[C@H](NC(=O)[C@@H](O)[C@H](N)Cc1ccccc1)C(=O)O [Bestatin] |  |  | TIKI2N activity (cleavage of HA-Wnt3a) in the presence of protease inhibitor (TIKI2N): not
O=C(O)CN(CCN(CC(=O)O)CC(=O)O)CC(=O)O [EDTA] |  |  | TIKI2N activity (cleavage of HA-Wnt3a) in the presence of protease inhibitor (TIKI2N): inhibited TIKI2N activity; also recorded: inhibited, albeit more mildly
[Ni+2] [Ni^2+] | inhibited TIKI2N activity |  | 
H58A: alanine mutation in Human TIKI2N construct (no transmembrane domain) (protein, UniProt A6NFA1 20-494, looked up, variant H58A, extracellular domain) extracellular domain: RPQPPDGGQCRPPGSQRDLNSFLWTIRRDPPAYLFGTIAVPYTRVWDFIPDNSKAAFQASTRVYFELDLTDPYTISALASCQLLPHGENLQDVLPHELYWRLKRHLDYVKLMMPSWMTPAQRGKGLYADYLFNAIAGNWERKRPVWVMLMVNSLTERDVRFRGVPVLDLYLAQQAEKMKKTTGAVEQVEEQCHPLNNGLNFSQVLFALNQTLLQQESVRAGSLQASYTTEDLIKHYNCGDLSAVIFNHDTSQLPNFINTTLPPHEQVTAQEIDSYFRQELIYKRNERMGKRVMALLRENEDKICFFAFGAGHFLGNNTVIDILRQAGLEVDHTPAGQAIHSPAPQSPAPSPEGTSTSPAPVTPAAAVPEAPSVTPTAPPEDEDPALSPHLLLPDSLSQLEEFGRQRKWHKRQSTHQRPRQFNDLWVRIEDSTTASPPPLPLQPTHSSGTAKPPFQLSDQLQQQDPPGPASSSAPT |  | inactive | 
H331A: alanine mutation in Human TIKI2N construct (no transmembrane domain) (protein, UniProt A6NFA1 20-494, looked up, variant H331A, extracellular domain) extracellular domain: RPQPPDGGQCRPPGSQRDLNSFLWTIRRDPPAYLFGTIHVPYTRVWDFIPDNSKAAFQASTRVYFELDLTDPYTISALASCQLLPHGENLQDVLPHELYWRLKRHLDYVKLMMPSWMTPAQRGKGLYADYLFNAIAGNWERKRPVWVMLMVNSLTERDVRFRGVPVLDLYLAQQAEKMKKTTGAVEQVEEQCHPLNNGLNFSQVLFALNQTLLQQESVRAGSLQASYTTEDLIKHYNCGDLSAVIFNHDTSQLPNFINTTLPPHEQVTAQEIDSYFRQELIYKRNERMGKRVMALLRENEDKICFFAFGAGAFLGNNTVIDILRQAGLEVDHTPAGQAIHSPAPQSPAPSPEGTSTSPAPVTPAAAVPEAPSVTPTAPPEDEDPALSPHLLLPDSLSQLEEFGRQRKWHKRQSTHQRPRQFNDLWVRIEDSTTASPPPLPLQPTHSSGTAKPPFQLSDQLQQQDPPGPASSSAPT |  | inactive | 
E85A: alanine mutation in Human TIKI2N construct (no transmembrane domain) (protein, UniProt A6NFA1 20-494, looked up, variant E85A, extracellular domain) extracellular domain: RPQPPDGGQCRPPGSQRDLNSFLWTIRRDPPAYLFGTIHVPYTRVWDFIPDNSKAAFQASTRVYFALDLTDPYTISALASCQLLPHGENLQDVLPHELYWRLKRHLDYVKLMMPSWMTPAQRGKGLYADYLFNAIAGNWERKRPVWVMLMVNSLTERDVRFRGVPVLDLYLAQQAEKMKKTTGAVEQVEEQCHPLNNGLNFSQVLFALNQTLLQQESVRAGSLQASYTTEDLIKHYNCGDLSAVIFNHDTSQLPNFINTTLPPHEQVTAQEIDSYFRQELIYKRNERMGKRVMALLRENEDKICFFAFGAGHFLGNNTVIDILRQAGLEVDHTPAGQAIHSPAPQSPAPSPEGTSTSPAPVTPAAAVPEAPSVTPTAPPEDEDPALSPHLLLPDSLSQLEEFGRQRKWHKRQSTHQRPRQFNDLWVRIEDSTTASPPPLPLQPTHSSGTAKPPFQLSDQLQQQDPPGPASSSAPT |  | inactive | 
E205A: alanine mutation in Human TIKI2N construct (no transmembrane domain) (protein, UniProt A6NFA1 20-494, looked up, variant E205A, extracellular domain) extracellular domain: RPQPPDGGQCRPPGSQRDLNSFLWTIRRDPPAYLFGTIHVPYTRVWDFIPDNSKAAFQASTRVYFELDLTDPYTISALASCQLLPHGENLQDVLPHELYWRLKRHLDYVKLMMPSWMTPAQRGKGLYADYLFNAIAGNWERKRPVWVMLMVNSLTERDVRFRGVPVLDLYLAQQAEKMKKTTGAVAQVEEQCHPLNNGLNFSQVLFALNQTLLQQESVRAGSLQASYTTEDLIKHYNCGDLSAVIFNHDTSQLPNFINTTLPPHEQVTAQEIDSYFRQELIYKRNERMGKRVMALLRENEDKICFFAFGAGHFLGNNTVIDILRQAGLEVDHTPAGQAIHSPAPQSPAPSPEGTSTSPAPVTPAAAVPEAPSVTPTAPPEDEDPALSPHLLLPDSLSQLEEFGRQRKWHKRQSTHQRPRQFNDLWVRIEDSTTASPPPLPLQPTHSSGTAKPPFQLSDQLQQQDPPGPASSSAPT |  | inactive | 
